We go through 4 compounds from patent US5912230A, “Anti-fungal and anti-bacterial histatin-based peptides” (priority 1998, dated 1999).

Where no end group is shown, it is not given here.

What is called IC50 is the concentration that gives 50% inhibition.

Experiment [1] concerns C. albicans blastoconidia. To be noted: blastoconidia, 1 h at 37° C., pH 7.4. The source says:
C. albicans is a dimorphic yeast. It can exist in a yeast or blastoconidial form, which upon germination develops into the hyphal or germinated form. While the germinated form is considered to be more invasive, most of the C. albicans isolates harvested from the oral cavities of healthy individuals appear to be in the blastoconidial form. (Arendorf, T. M. et al. (1980), Arch. Oral Biol. 25:1-10; Gow, N.A.R. et al. (1987), Criti. Rev. Microbiol. 15:73-78; Odds, F. C. (1988), Candida and Candidosis, 2nd ed., Bailliere Tindall, London, England). Anti-fungal activity of synthetic histatin 5, histatin-based peptide 113, peptides based on portions of the amino acid sequences of histatin-based peptide 113 and peptides derived from histatin-based peptide 113 with specified amino acid substitutions was measured in assays designed to test the effectiveness of the peptides against the blastoconidia form of Candida (Table 1). These assays, which measure killing of blastoconidia of C. albicans, are described in Xu et al., which is herein incorporated by reference. (Xu, T. et al. (1991), Infect. Immun. 59(8):2549-2554).
A well-described strain of C. albicans was used in the bioassay. This strain, ATCC 44505, was originally isolated from the human oral cavity. Cultures were stored at 4° C. on Sabouraud dextrose agar plates (Difco Laboratories, Detroit, Mich.) until use. Stationary phase growth cells were obtained following growth at 30° C. for 18 h on Sabouraud dextrose agar plates. Colonies were harvested and suspended in 10 mM potassium phosphate buffer (PPB), pH 7.4.
To initiate log phase growth, an aliquot of stock C. albicans was suspended in Sabouraud dextrose broth (Difco) and incubated at 30° C. in a shaking water bath. The growth phase was determined by taking aliquots of the culture at one hour intervals to monitor the optical density (O.D.) at 560 nm. […] Log phase cells were harvested and utilized in the blastoconidia killing assay in a manner identical to that described for stationary phase cells. A final concentration of 10^5 cells/ml (either stationary or log phase fungus) was used in all assays.
The standard suspension buffer utilized in the blastospore killing assay was 0.01M PPB, pH 7.4. An alternate suspension buffer, N-2-hydroxyethylpiperazine-N'-2-ethanesulfonic acids (HEPES; Sigma Chemical Co., St. Louis, Mo.), pH 7.4, can also be utilized.
a. For the killing of blastoconidia assay, 50 μl aliquots of cells (2×10^5 cells/ml) diluted in suspension buffer were allowed to attach to a polystyrene 96-well micro-titer plate (COSTAR, Cambridge, Mass.) for 15 min at room temperature, and then incubated with an equal volume of a histatin or histatin peptide in suspension buffer for 1 h at 37° C. Controls were carried out in the absence of the histatin or histatin peptide. After incubation, wells were washed three times by centrifugation at 1,000 xg for 5 min and covered with aliquots of molten Sabouraud dextrose broth (Difco) containing 2% agarose (Sigma) at 45° C. The plate was then incubated at 30° C. for 8 h. Under such conditions, live cells will divide and begin to form colonies, while dead cells will remain as single cells. To determine the percentage of blastoconidia killed, a total of 100 single cells and/or colonies were counted under a Nikon inverted microscope at 400× magnification and the extent of killing was calculated using the formula: [1-(number of colonies in treated sample)/(number of colonies in control)]×100%.
Data were obtained by calculating the mean and standard deviation from triplicate assays.

The test system of experiment [2] is P. gingivalis hemagglutination of erythrocytes. As to the kind of experiment: histatin peptide inhibition of hemagglutination assay. Format: cell-based, Porphyromonas gingivalis. To be noted: 2 hours at room temperature, visual examination. The procedure: The P. gingivalis strain of Section C.(1) was also used for the hemagglutination assays. The bacterial growth and culture conditions were also the same as those described in Section C.(1).
A classic assay was utilized to determine the hemagglutination potential of the P. gingivalis strain. Microorganisms were inoculated into BFB broth and cultured overnight, for approximately 24 hours at 37° C. under strictly anaerobic conditions with continuous agitation on a minishaker (IKA-Labortechnik, Staufen i. Br., Germany). The bacteria were harvested by centrifugatin at 3,000 r.p.m. for 20 min, at 4° C., washed twice in 0.01M phosphate buffered saline (PBS), pH 7.4, and suspended in the same buffer to an optical density of 1.0 at 550 nm. […] One ml of blood was drawn each time, washed twice in PBS at 1,000 r.p.m. for 10 min at 4° C. and suspended in the same buffer at a 2% (v/v) final concentration. Fifty μl of the bacterial suspension were serially diluted in PBS (two-fold steps) in a 96-well U-bottom microplate (Costar, Cambridge, Mass.). Fifty μl of the erythrocyte suspension were added to each well. Controls without bacteria or erythrocytes were included. The microplate was slightly shaken and incubated at room temperature for 2 hours. Visible examination on a white background was used to determine hemagglutination. The amount of hemagglutination was rated as none,(-), moderate (+/-), or strong (+). Erythrocytes in control wells with PBS precipitated to the center of the well, whereas erythrocyte-bacteria aggregates precipitated at the periphery of the bottom. The hemagglutination titer was expressed as the reciprocal of the highest dilution of the bacterial suspension providing visible hemagglutination.
Preparation of erythrocyte and bacterial suspensions were the same as for the hemagglutination assay. Fifty μl of histatin peptide solutions were diluted in PBS in a U-bottom microplate, at various two-fold concentrations with 600 nmole/ml being the highest. The bacterial concentration utilized was normally twice the minimal concentration which gave strong hemagglutination. Equal volumes of the bacterial suspension were poured into the wells containing the histatin peptides. Finally, 50 μl of erythrocyte suspension were added in each well. The microplate was slightly shaken and incubated at room temperature for 2 hours. Controls were made by replacement of the peptide dilutions with PBS only. The experiments were conducted at least twice. The lowest histatin peptide concentration without hemagglutination (complete inhibition) was determined upon visual examination. The highest final histatin peptide concentration utilized was 100 nmole/ml.

The test system of experiment [3] is Porphyromonas gingivalis strain A7A1-28. As to the kind of experiment: microdilution bacteriostatic assay (P. gingivalis growth inhibition). Format: cell-based. The procedure:
(a) The bacteria used in one investigation, Porphyromonas gingivalis strain A7A1-28, is a typical key pathogenic organism associated with destructive periodontal diseases. The bacteria were multiply subcultured in Enriched Todd Hewitt broth (ETHB, Difco Lab., Detroit, Mich.). Microorganisms were stored in the same broths containing 20% and 50% glycerol, at -20° C. and -70° C., respectively. These served as stock cultures from which all preparations originated.
Working stock cultures were maintained by weekly transfer to Brain Heart Infusion Anaerobic Sheep Blood Agar plates (BHIA, Becton Dickinson and Co., Cockeysville, Md.), and Trypticase Soy Anaerobic Sheep Blood Agar plates (TSA, Becton Dickinson and Co., Cockeysville, Md.). Plates were incubated for 3 to 4 days under strictly anaerobic conditions. For the bacteriostatic assay, bacteria were collected from plates, inoculated into the aforementioned broth and grown at 37° C., under strictly anaerobic conditions for 24 to 48 hours.
A modification of the typical microdilution assay (Rotilie et al., 1975) for the determination of minimal inhibitory concentration (MIC) of antimicrobial agents was utilized to investigate the bacteriostatic activity of the peptides. A standardized bacterial inoculum (P. gingivalis) was exposed to serially diluted antimicrobial peptides in an enriched broth medium that was suitable for the growth of anaerobic bacteria. The test was adapted for use in the 96-well microtiter plates. […] The modification introduced here was based on the spectrophotometric reading of the microtiter plate after incubation.
Microorganisms from cultures maintained in the aforementioned plates were inoculated into 5 ml of the above-mentioned broths and cultured overnight at 37° C. under strictly anaerobic conditions with continuous agitation on a minishaker (IKA-Labortechnik, Staufen i. Br., Germany). The bacteria were grown until reaching the late log phase and were then suspended in the same broths to an optical density (O.D.) of 0.1 at 560 nm. The peptides were diluted in 0.01M phosphate buffered saline (PBS), pH 7. Forty μl aliquots of peptide dilutions were added in each well of a U-bottom microtiter plate (Costar, Cambridge, Mass.) to give final concentrations of 2000, 1000, 500 and 250 μM. Twenty μl of bacterial inoculum was added to all the wells. Finally, 100 μl of the suitable broth were added to each well. The optical density of the wells of the microtiter plate was determined using a microplate reader set at 550 nm and the plate was then incubated under strictly anaerobic conditions for 24 hours. Controls were made by replacing the peptide dilutions with PBS alone. After the incubation, the mixtures in each well were mixed manually to resuspend sedimented bacteria and the plate was read again. The experiments were conducted twice every time. The biologic activity was calculated according to the formula:
100-[[(Fin ODexp-In ODexp)/(Fin ODctr-In ODctr)]×100]
In addition, the % increase in time to reach midlog phase growth was calculated.
The data presentation represent the means (±SEM) of at least 2 separate experiments.
In general terms: Broth dilution looks for growth in wells or tubes with falling amounts of substance.

The next experiment addresses T1, Clostripain (Hathewaya histolytica, UniProt P09870).
T1 construct: purchased Sigma Chemical Corp., St. Louis, Mo
The experiment is described as follows: clostripain assay (BAPNA hydrolysis). Format: biochemical, Clostridium histolyticum. The following applies: read-out: Clostripain: IC50 (μM) for inhibition of Clostripain. The procedure: Clostripain from Clostridium histolyticum (Sigma Chemical Corp., St. Louis, Mo.) was dissolved in deionized water to a concentration of 1 mg/mL (300 units/mg) and activated with the addition of 10 mmol/L DTT. To measure its hydrolytic activity, clostripain (6 units) was added to […] Hepes buffer, pH 7.5, containing 80 gmol/L BAPNA (benzoyl-arginine-p-nitroanilide), together with 5.6 μmol/L of histatin peptide inhibitor. As controls, assays were performed in the absence of any histatin peptide inhibitor. The activity was monitored continuously at 405 nm using a Molecular Devices VMax microtitre plate reader. The activities were determined from the maximum rates of substrate hydrolysis. Assays were done in duplicate, and the means normalized to the controls.

T1 sequence (P09870 191-526): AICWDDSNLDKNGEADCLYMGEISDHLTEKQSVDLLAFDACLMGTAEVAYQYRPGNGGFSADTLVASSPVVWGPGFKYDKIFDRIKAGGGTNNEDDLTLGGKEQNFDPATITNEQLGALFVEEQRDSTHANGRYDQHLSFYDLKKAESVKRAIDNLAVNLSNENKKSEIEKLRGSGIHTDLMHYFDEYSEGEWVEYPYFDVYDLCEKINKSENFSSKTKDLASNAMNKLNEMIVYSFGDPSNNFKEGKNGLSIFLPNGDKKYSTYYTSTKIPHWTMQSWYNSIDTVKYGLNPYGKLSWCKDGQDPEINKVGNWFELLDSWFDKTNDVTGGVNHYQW
T1 sequence (P09870 51-181): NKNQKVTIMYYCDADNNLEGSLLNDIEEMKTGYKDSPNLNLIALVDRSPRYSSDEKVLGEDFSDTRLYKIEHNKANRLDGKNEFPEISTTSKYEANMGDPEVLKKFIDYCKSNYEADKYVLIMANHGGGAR

For KRHHGYKRKFHEKHHSHRGYR [peptide 101], the “C. albicans: LD50 (μM) for % killing” value in experiment [1] amounted to 3.5 µM. Further, the “Hemagglutination: lowest dose (μM) at which hemagglutination was observed using P. Gingivalis” value (“Hemagglutination … using P. Gingivalis” for short) in experiment [2] was 1.56 µM.
KRHHGYKRKFHEKHH [peptide 105]: the “C. albicans: LD50 (μM) for % killing” value in experiment [1] was determined as 5.0 µM. For the same compound, in experiment [3] (500 μM dose, highest response seen used in the scoring), the “P. gingivalis: % inhibition at 500 μM dose (scoring)” value is on record as “+++ (+++50-80%)”. Moreover, the “Hemagglutination … using P. Gingivalis” value in experiment [2] was 6.25 µM.
Consider KRHHGYKRKFHEKHHSHR [peptide 103], for which the “C. albicans: LD50 (μM) for % killing” value in experiment [1] turned out to be 4.5 µM. In addition, in experiment [3] (2 mM dose), the “P. gingivalis: % increase in time to reach mid logphase growth (0.2 OD)” value was found to be 56.6%. Further, the “Hemagglutination … using P. Gingivalis” value in experiment [2] turned out to be 1.56 µM.
On to `C[C@H](NC(=O)[C@H](Cc1c[nH]cn1)NC(=O)[C@H](CO)NC(=O)[C@@H](N)CC(=O)O)C(=O)N[C@@H](CCCCN)C(=O)N[C@@H](CCCNC(=N)N)C(=O)N[C@@H](Cc1c[nH]cn1)C(=O)N[C@@H](Cc1c[nH]cn1)C(=O)NCC(=O)N[C@@H](Cc1ccc(O)cc1)C(=O)N[C@@H](CCCCN)C(=O)N[C@@H](CCCNC(=N)N)C(=O)N[C@@H](CCCCN)C(=O)N[C@@H](Cc1ccccc1)C(=O)N[C@@H](Cc1c[nH]cn1)C(=O)N[C@@H](CCC(=O)O)C(=O)N[C@@H](CCCCN)C(=O)N[C@@H](Cc1c[nH]cn1)C(=O)N[C@@H](Cc1c[nH]cn1)C(=O)N[C@@H](CO)C(=O)N[C@@H](Cc1c[nH]cn1)C(=O)N[C@@H](CCCNC(=N)N)C(=O)NCC(=O)N[C@@H](Cc1ccc(O)cc1)C(=O)O` [SynHis5, reference compound], for which the “C. albicans: LD50 (μM) for % killing” value in experiment [1] was 3.0 µM. The half-inhibitory concentration (IC50) at Clostripain was under 6.2 µM.
